{"source": "patent US20060165808A1", "about": "“Microcapsules for the delayed, controlled release of perindopril” (priority 2002, published 2006)", "origin": "cited, not measured here"}
{"smiles": "CCC[C@H](N[C@@H](C)C(=O)N1[C@H](C(=O)O)C[C@@H]2CCCC[C@@H]21)C(=O)OCC", "note": "[perindopril]", "values": [{"measurement": "solubility in aqueous media", "value": "very high degree of solubility"}]}
